Experimental data from ChEMBL document CHEMBL4000146, “Synthesis, antiplasmodial activity and mechanistic studies of pyrimidine-5-carbonitrile and quinoline hybrids” (Eur J Med Chem, 2015).
Calls of active or inactive are those of the source. No cut-off for these calls is given here.

Tests used:
Human orthopneumovirus = type: functional, cell-based; details: human respiratory syncytial virus, HeLa
Plasmodium falciparum [1] = test: Resistance index, ratio of IC50 for chloroquine-resistant asexual intraerythrocytic stage of Plasmodium falciparum Dd2 to IC50 for chloroquine-sensitive asexual intraerythrocytic stage of Plasmodium falciparum NF54; type: functional
Coxsackievirus [2] = type: functional, cell-based; details: B4, HeLa
Influenza A virus [3] = test: microbe, parasite or virus in culture; details: H1N1, MDCK
[4] = Cytotoxicity against african green monkey Vero cells assessed as alteration of normal cell morphology by microscopic analysis; type: cell-based; details: chlorocebus sabaeus
Punta Toro virus = type: functional; details: Vero
Human betaherpesvirus 5 [5] = type: functional, cell-based; details: Human betaherpesvirus 5, Davis, HEL
Plasmodium falciparum [6] = test: microbe, parasite or virus in culture; details: Dd2
unidentified adenovirus = type: functional, cell-based; details: HEL
CCRF-CEM = test: Cytotoxicity against human CEM cells assessed as inhibition of cell proliferation by Coulter counter analysis; type: cell-based
[7] = Cytotoxicity against human HeLa cells assessed as alteration of normal cell morphology by microscopic analysis; type: cell-based
Heme = test: Binding affinity to monomeric heme (unknown origin) assessed as monomeric heme-compound complex formation up to 37.3 uM by UV-visible absorption spectrophotometry
Human alphaherpesvirus 1 [8] = type: functional, cell-based; details: Human alphaherpesvirus 1, KOS, HEL
Human betaherpesvirus 5 [9] = type: functional, cell-based; details: Human betaherpesvirus 5, AD169, HEL
[10] = Cytotoxicity against MDCK cells assessed as inhibition of cell viability by colorimetric formazan-based MTS assay; parameters: species or system Canis lupus familiaris; details: dog
Coxsackievirus [11] = type: functional; details: B4, Vero
Human alphaherpesvirus 3 [12] = type: functional, cell-based; details: Human alphaherpesvirus 3, strain Oka vaccine, HEL
[13] = Cytotoxicity against human HEL cells assessed as inhibition of cell viability by colorimetric formazan-based MTS assay
[14] = Selectivity index, ratio of IC50 for human HeLa cells to IC50 for chloroquine-resistant asexual intraerythrocytic stage of Plasmodium falciparum Dd2; type: toxicity, cell-based; details: read-out: Ratio IC50
Human alphaherpesvirus 2 = type: functional, cell-based; details: Human alphaherpesvirus 2, G, HEL
[15] = Selectivity index, ratio of IC50 for human HeLa cells to IC50 for chloroquine-sensitive asexual intraerythrocytic stage of Plasmodium falciparum NF54; type: toxicity, cell-based; details: read-out: Ratio IC50
Human alphaherpesvirus 1 [16] = type: functional, cell-based; details: Human alphaherpesvirus 1, KOS, HEL; remark: listed apart in the source
Influenza A virus [17] = test: microbe, parasite or virus in culture; details: H3N2, MDCK
Human alphaherpesvirus 3 [18] = type: functional, cell-based; details: Human alphaherpesvirus 3, 07-1, HEL
Influenza B virus = test: microbe, parasite or virus in culture; details: MDCK
[19] = test system: Vesicular stomatitis virus; test: microbe, parasite or virus in culture; details: HEL
[20] = Cytotoxicity against MDCK cells assessed as alteration of normal cell morphology by microscopic analysis; type: cell-based, Canis lupus familiaris; details: dog
[21] = test system: Vesicular stomatitis virus; test: microbe, parasite or virus in culture; details: HeLa
L1210 = test: Cytotoxicity against mouse L1210 cells assessed as inhibition of cell proliferation by Coulter counter analysis; type: cell-based
Human respirovirus 3 = type: functional; details: Human respirovirus 3, Vero
Plasmodium falciparum [22] = test: microbe, parasite or virus in culture; details: NF54
Vaccinia virus = test: microbe, parasite or virus in culture; details: Orthopoxvirus vaccinia, HEL
Sindbis virus = type: functional; details: Vero
[23] = Cytotoxicity against human HEL cells assessed as alteration of normal cell morphology by microscopic analysis; type: cell-based
HeLa = test: Cytotoxicity against human HeLa cells assessed as inhibition of cell proliferation by Coulter counter analysis; type: cell-based
[24] = test system: Mammalian orthoreovirus 1; type: functional; details: Mammalian orthoreovirus 1, Vero
Plasmodium falciparum [25] = test: Potency index, ratio of chloroquine IC50 to test compound IC50 for chloroquine-resistant asexual intraerythrocytic stage of Plasmodium falciparum Dd2; type: functional

Structure (SMILES)	EC50 (Human orthopneumovirus) [nM]	Ratio IC50 (Plasmodium falciparum [1])	EC50 (Coxsackievirus [2]) [nM]	EC50 (Influenza A virus [3]) [nM]	MCC [4] [µM]	EC50 (Punta Toro virus) [nM]	EC50 (Human betaherpesvirus 5 [5]) [nM]	IC50 (Plasmodium falciparum [6]) [nM]	EC50 (unidentified adenovirus) [nM]	IC50 (CCRF-CEM) [nM]	MCC [7] [µM]	EC50 (Human alphaherpesvirus 1 [8]) [nM]	EC50 (Human betaherpesvirus 5 [9]) [nM]	CC50 [10] [nM]	EC50 (Coxsackievirus [11]) [nM]	EC50 (Human alphaherpesvirus 3 [12]) [nM]	CC50 [13] [nM]	selectivity ratio [14]	EC50 (Human alphaherpesvirus 2) [nM]	selectivity ratio [15]	also measured
CSc1nc(-c2ccccc2)c(C#N)c(N2CCN(c3ccnc4cc(Cl)ccc34)CC2)n1	> 100000	1.6	> 100000	> 100000	> 100	> 100000	> 100000	212000	> 100000	> 250000	> 100	> 100000	> 20000	> 100000	> 100000	> 100000	> 100000	> 1.1	> 100000	> 1.9	Activity (Heme): inactive; EC50 (Human alphaherpesvirus 1 [16]): > 100000 nM; EC50 (Influenza A virus [17]): > 100000 nM; EC50 (Human alphaherpesvirus 3 [18]): > 100000 nM; EC50 (Influenza B virus): > 100000 nM; EC50 [19]: > 100000 nM; MCC [20]: > 100 µM; EC50 [21]: > 100000 nM; IC50 (L1210): > 250000 nM; EC50 (Human respirovirus 3): > 100000 nM; IC50 (Plasmodium falciparum [22]): 132000 nM; EC50 (Vaccinia virus): > 100000 nM; EC50 (Sindbis virus): > 100000 nM; MCC [23]: ≥ 100 µM; IC50 (HeLa): > 250000 nM; EC50 [24]: > 100000 nM
COc1cc(-c2nc(SC)nc(NCCCCNc3ccnc4cc(Cl)ccc34)c2C#N)cc(OC)c1OC	> 4000	0.98	> 4000	> 800	4	> 800	> 4000	89.5	> 800	3600	20	> 800	> 4000	2000	> 800	> 4000	1500	37.9	> 800	37.4	Ratio IC50 (Plasmodium falciparum [25]): 3; EC50 (Human alphaherpesvirus 1 [16]): > 800 nM; EC50 (Influenza A virus [17]): > 800 nM; EC50 (Human alphaherpesvirus 3 [18]): > 4000 nM; EC50 (Influenza B virus): > 800 nM; EC50 [19]: > 800 nM; MCC [20]: 4 µM; EC50 [21]: > 4000 nM; IC50 (L1210): 3800 nM; EC50 (Human respirovirus 3): > 800 nM; IC50 (Plasmodium falciparum [22]): 90.9 nM; EC50 (Vaccinia virus): > 800 nM; EC50 (Sindbis virus): > 800 nM; MCC [23]: 4 to 20 µM; IC50 (HeLa): 3400 nM; EC50 [24]: > 800 nM
CSc1nc(NCCCCNc2ccnc3cc(Cl)ccc23)c(C#N)c(-c2ccc([N+](=O)[O-])cc2)n1	> 800	12.13	> 800	> 800	4	> 800	> 800	532	> 800	760	4	> 800	> 800	2000	> 800	> 800	1700	1.6	> 800	20.3	EC50 (Human alphaherpesvirus 1 [16]): > 800 nM; EC50 (Influenza A virus [17]): > 800 nM; EC50 (Human alphaherpesvirus 3 [18]): > 800 nM; EC50 (Influenza B virus): > 800 nM; EC50 [19]: > 800 nM; MCC [20]: 4 µM; EC50 [21]: > 800 nM; IC50 (L1210): 960 nM; EC50 (Human respirovirus 3): > 800 nM; IC50 (Plasmodium falciparum [22]): 43.8 nM; EC50 (Vaccinia virus): > 800 nM; EC50 (Sindbis virus): > 800 nM; MCC [23]: 4 µM; IC50 (HeLa): 890 nM; EC50 [24]: > 800 nM
CSc1nc(OCCCNc2ccnc3cc(Cl)ccc23)c(C#N)c(-c2ccccc2)n1	> 800	2.34	> 800	> 800	4	> 800	> 800	208	> 800	3300	4	> 800	> 800	2100	> 800	> 800	1700	16.3	> 800	38.3	EC50 (Human alphaherpesvirus 1 [16]): > 800 nM; EC50 (Influenza A virus [17]): > 800 nM; EC50 (Human alphaherpesvirus 3 [18]): > 800 nM; EC50 (Influenza B virus): > 800 nM; EC50 [19]: > 800 nM; MCC [20]: 4 µM; EC50 [21]: > 800 nM; IC50 (L1210): 3900 nM; EC50 (Human respirovirus 3): > 800 nM; IC50 (Plasmodium falciparum [22]): 88.8 nM; EC50 (Vaccinia virus): > 800 nM; EC50 (Sindbis virus): > 800 nM; MCC [23]: 4 µM; IC50 (HeLa): 3400 nM; EC50 [24]: > 800 nM
